13 molecules from PubChem BioAssay (NCI) can be followed below.

Assay in all cases: NCI tumour cell line growth inhibition, 48 h
Assay [1] deals with NCI-H226 lung.
The subject of assay [2] is HS 578T breast.
Assay [3] has as its system IGROV1 ovarian.
Assay [4] relates to SK-MEL-2 melanoma.
Assay [5] relates to BT-549 breast.
Assay [6] concerns DU-145 prostate.
Assay [7] relates to NCI-H460 lung.
Assay [8] relates to SK-MEL-5 melanoma.
Assay [9] deals with HOP-62 NSCLC.
The subject of assay [10] is NCI-H23 lung.

Molecules are shown by their SMILES.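 Where inhibition never reached the appropriate level, the endpoint shown equals the highest concentration tested. Otherwise, values were interpolated linearly from a five-concentration, 48-hour dose response in 96-well plates. TGI denotes the concentration required for complete inhibition of growth.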

Turning to `Cc1ccc(N2C(=O)C3c4[nH]c5ccccc5c4C4CCC(C(C)(C)C)CC4C3C2=O)cc1` (stereo not drawn), the TGI in assay [1] is 33.2 µM; in [2] it was 16.9 µM; in assay [3], 25.2 µM; in assay [4], 44.6 µM; in assay [5], 39.3 µM; in [6], 5.82 µM. The TGI in assay [7] worked out at 17.2 µM; in assay [8] it was 36.4 µM; in assay [9] it was 11.6 µM; in assay [10] it was 32.4 µM.

Take `C1=NCCNCCN=Cc2ccc(cc2)OCc2cccc(n2)COc2ccc1cc2`: the TGI in assay [1], in [2], in assay [3], in assay [4], in [5] and in assay [6] was over 100 µM each time. Moreover, the TGI was over 100 µM in assay [7], over 100 µM in assay [8], 52.9 µM in assay [9] and over 100 µM in [10].

As to `COC(=O)C1CC2(CCC1=O)Cc1ccccc1C2=O` (stereo not drawn), the TGI in assay [1], in [2], in assay [3], in assay [4], in assay [5] and in assay [6] was over 100 µM throughout. The TGI in assay [7], in assay [8], in assay [9] and in [10] was over 100 µM throughout.

On to `CC1(CCC2C=CCC2)CCCNC1=S` (stereo not drawn), for which the TGI in [1], in assay [2], in assay [3], in assay [4], in assay [5] and in assay [6] was over 10 µM in each case. The TGI in assay [7], in assay [8], in assay [9] and in assay [10] was over 10 µM in each case.

As for `CC(=O)OCC(OC(C)=O)C(OC(C)=O)C(C=NN(C(C)=O)S(=O)(=O)c1ccc(/C=C2\NC(=O)NC2=O)cc1)OC(C)=O` (stereo not drawn), the TGI in assay [1], in assay [2], in [3], in assay [4], in assay [5] and in assay [6] was over 100 µM each time. The TGI in assay [7], in assay [8], in assay [9] and in [10] was over 100 µM each time.

For the molecule `N#C/C(=C\c1ccccc1)C(=O)Nc1nnc(-c2ccccc2)o1`, the TGI in assay [1], in [2], in assay [3], in assay [4], in assay [5] and in [6] was over 100 µM each time. For the same molecule, the TGI in [8] was 38.3 µM; in assay [9] it was over 100 µM; in assay [10], over 100 µM.

`CC12Nc3ccccc3N1C(=O)c1ccccc12` (stereo not drawn): the TGI in assay [1], in [2], in assay [3], in [4], in assay [5] and in assay [6] was over 100 µM throughout. Besides, the TGI in assay [7], in assay [8], in assay [9] and in [10] was over 100 µM each time.

As for `CCCCCC/C=C\CCCCCCCCCc1cccc(O)c1C(=O)O`, the TGI in assay [1] is over 100 µM; in assay [2] it was over 100 µM; in assay [3], over 100 µM; in assay [4], 95.8 µM; in assay [5], over 100 µM; in [6] it was over 100 µM. For the same molecule, the TGI in [7], in assay [8], in assay [9] and in assay [10] was over 100 µM in each case.

For the molecule `CC1(C)CC(=O)c2c(nc3ccc4ccccc4c3c2-c2ccc(NC(=O)CCCC(=O)Nc3ccc(-c4c5c(nc6ccc7ccccc7c46)CC(C)(C)CC5=O)cc3)cc2)C1`, the TGI in assay [1], in assay [2], in assay [3], in assay [4], in assay [5] and in [6] was over 100 µM in each case. Also, the TGI in [7], in assay [8], in assay [9] and in assay [10] was over 100 µM throughout.

Regarding `O=c1oc2ccccc2c(Nc2ccc3c(c2)S(=O)(=O)c2ccccc2O3)c1[N+](=O)[O-]`, the TGI is 74.9 µM in assay [1]; over 100 µM in [2]; 97.1 µM in assay [3]; 46.4 µM in assay [4]; 70.4 µM in assay [5]; over 100 µM in assay [6]. For the same molecule, the TGI in assay [7] is 91.7 µM; in [8], 50.1 µM; in [9] it was over 100 µM; in [10], 62.6 µM.

As for `COc1ccc(NC(=O)/C(=N\NC(=O)C[n+]2ccccc2)c2c(O)c3ccc(O)cc3oc2=O)c([N+](=O)[O-])c1`, the TGI in assay [1], in assay [2], in assay [3], in [4], in assay [5] and in assay [6] was over 100 µM in each case. The TGI in assay [7], in [8] and in [10] was over 100 µM throughout.

Consider `COc1ccc(NC(=O)CC(=O)N2N=C(C)C(N=Nc3ccc(S(=O)(=O)c4ccc(N=NC5C(=O)N(C(=O)CC(=O)Nc6ccc(OC)cc6)N=C5C)cc4)cc3)C2=O)cc1` (stereo not drawn), for which the TGI in [1], in assay [2], in assay [3], in assay [4], in [5] and in assay [6] was over 100 µM each time. For the same molecule, the TGI in assay [7], in assay [8], in assay [9] and in [10] was over 100 µM each time.

For the molecule `O=c1oc2ccccc2cc1/C=N/N1C(=S)N(c2ccccc2)C(=Nc2ccccc2)C1=Nc1ccccc1`, the TGI in assay [1], in assay [2], in [3], in [4], in [5] and in assay [6] was over 100 µM throughout. Further, the TGI in assay [7], in assay [8], in assay [9] and in [10] was over 100 µM each time.
